Measured values published in patent US6428997B1, “Aminopeptidase derived from Bacillus licheniformis and process for preparation of natural type proteins” (LG Chemical Ltd., priority 1997, dated 2002).

Legend:
aminopeptidase = assay: Effect of chemical materials affecting enzyme activity of aminopeptidase; format: biochemical, Bacillus licheniformis
Method: (§1) In order to examine chemical materials affecting enzyme activity of aminopeptidase, enzyme activities of aminopeptidase treated for 2 hours with dithiotreitol, iodoacetic acid, ortho-phenanthroline and EDTA as 1, 5 and 20 mMJ respectively were measured.

[1] = target: T1, aminopeptidase of Bacillus licheniformis ATCC 12759 (N-terminal sequence SEQ ID NO: 3) (Bacillus licheniformis, UniProt Q65DH7); assay: Effect of chemical materials on aminopeptidase activity (2 h treatment, leucine-p-nitroanilide substrate); format: biochemical; details: treated 2 hours, 0 mM = 100, read-out: relative activity
T1 sequence (Q65DH7 43-449 limits assumed): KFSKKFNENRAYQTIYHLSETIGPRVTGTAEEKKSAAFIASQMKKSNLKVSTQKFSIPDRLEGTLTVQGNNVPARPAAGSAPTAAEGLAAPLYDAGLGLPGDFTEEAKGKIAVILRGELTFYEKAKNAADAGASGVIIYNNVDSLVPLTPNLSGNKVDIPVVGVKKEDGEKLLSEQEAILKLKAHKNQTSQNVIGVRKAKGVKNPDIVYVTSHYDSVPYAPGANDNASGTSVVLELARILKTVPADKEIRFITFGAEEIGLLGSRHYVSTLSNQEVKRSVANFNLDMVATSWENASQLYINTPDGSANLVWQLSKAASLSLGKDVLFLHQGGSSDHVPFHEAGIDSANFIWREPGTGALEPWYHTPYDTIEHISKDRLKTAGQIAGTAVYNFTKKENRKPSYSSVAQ
Method: Aminopeptidase activities of this invention were measured by the method of Pfleiderer (Pfleiderer, Meth. Enzymol., 19, 514-521, 1970). Precisely, 1 U of enzyme activity defines the enzyme quantity changing 1 absorbance at 405 nm which is measured by the process adding aminopeptidase in 1 ml solution of […] Tris-Cl (pH 8.0) and 2 mM leucine-p-nitroanilide (Sigma, USA), incubating at 37° C. for 1 min, then adding 100 μl of 70% acetic acid to stop the reaction. At that time leucine-p-nitroanilide was dissolved in dimethylsulfoxide (DMSO) to make 100 mM solution.
as §1

[2] = Moore, Endocrinology 1988; cited from earlier work
[3] = aminopeptidase treated for 2 hours with 1 mM chemical
[4] = aminopeptidase treated for 2 hours with 5 mM chemical
[5] = aminopeptidase treated for 2 hours with 20 mM chemical

Molecule | effect on aminopeptidase activity (in words) (aminopeptidase) | relative activity (%) (aminopeptidase; [3]) | relative activity (%) (aminopeptidase; [4]) | relative activity (%) (aminopeptidase; [5]) | activity at 1000 µM ([1]; pH 8, 1 mM chemical) [%] | activity at 5000 µM ([1]; pH 8, 5 mM chemical) [%] | activity at 20000 µM ([1]; pH 8, 20 mM chemical) [%] | biological activity compared with natural type HGH [2]
O[C@H](CS)[C@H](O)CS (racemic) [dithiotreitol, dithiothreitol] | inhibited | 0.8 | 0 | 0 | – | – | – | –
c1cnc2c(c1)ccc1cccnc12 [ortho-penanthroline, ortho-phenanthroline] | inhibited | 91.9 | 86.8 | 4.7 | 91.9 | 86.8 | 4.7 | –
O=C(O)CN(CCN(CC(=O)O)CC(=O)O)CC(=O)O [EDTA, ethylenediaminetetraacetic acid] | inhibited partially | 93.8 | 83.4 | 66.3 | – | – | – | –
methionyl HGH: recombinant human growth hormone of 192 amino acids with Met-Phe-Pro-Thr sequence at the N-terminus | – | – | – | – | – | – | – | the same activity with that of natural type HGH
O=C(O)CI [iodoacetic acid] | inhibited | 98.1 | 104.2 | 0 | – | – | – | –
